Measurements as given in ChEMBL document CHEMBL1165979, “Peptide fragmentation as an approach in modeling of an active peptide and designing a competitive inhibitory peptide for HMG-CoA reductase” (Bioorg Med Chem, 2010).
Non-standard residues stand in square brackets, D forms with d. Residues, ends and D or L forms follow the SMILES beside them. Phe(4-F) = N[C@@H](Cc1ccc(F)cc1)C(=O)O

These compounds were tested against T1, 3-hydroxy-3-methylglutaryl-coenzyme A reductase (Homo sapiens, UniProt P04035) (assay: Competitive inhibition of HMG-CoA reductase by Dixon plot analysis). Conditions: not given; call rule not given here.
T1 sequence (P04035 whole entry): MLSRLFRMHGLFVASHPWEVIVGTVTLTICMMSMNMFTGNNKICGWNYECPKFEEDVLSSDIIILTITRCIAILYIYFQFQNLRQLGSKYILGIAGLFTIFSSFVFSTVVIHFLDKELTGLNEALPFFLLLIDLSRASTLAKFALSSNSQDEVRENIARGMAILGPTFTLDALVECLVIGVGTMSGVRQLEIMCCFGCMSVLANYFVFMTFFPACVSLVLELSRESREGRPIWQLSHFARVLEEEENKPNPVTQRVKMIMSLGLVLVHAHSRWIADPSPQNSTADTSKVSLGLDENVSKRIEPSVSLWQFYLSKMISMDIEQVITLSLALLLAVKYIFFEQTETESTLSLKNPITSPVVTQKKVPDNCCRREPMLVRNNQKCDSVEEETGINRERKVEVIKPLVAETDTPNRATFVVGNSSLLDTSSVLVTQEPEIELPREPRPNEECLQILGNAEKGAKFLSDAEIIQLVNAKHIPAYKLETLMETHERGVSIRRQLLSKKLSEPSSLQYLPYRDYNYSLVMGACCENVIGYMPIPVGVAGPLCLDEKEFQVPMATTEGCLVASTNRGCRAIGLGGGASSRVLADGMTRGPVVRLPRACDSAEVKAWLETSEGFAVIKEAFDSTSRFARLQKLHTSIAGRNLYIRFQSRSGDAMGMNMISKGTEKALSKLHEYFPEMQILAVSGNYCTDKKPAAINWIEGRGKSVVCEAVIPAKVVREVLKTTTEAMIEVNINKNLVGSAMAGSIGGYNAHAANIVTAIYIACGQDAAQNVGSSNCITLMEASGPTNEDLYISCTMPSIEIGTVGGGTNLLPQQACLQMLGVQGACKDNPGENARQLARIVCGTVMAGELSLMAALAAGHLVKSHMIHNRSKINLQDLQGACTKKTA

Ki [µM] | Compound
0.26 | C[C@@H](O)[C@H](NC(=O)[C@@H]1CCCN1C(=O)[C@H](Cc1ccc(F)cc1)NC(=O)CN)C(=O)NCC(=O)NCC(=O)O (H-G[Phe(4-F)]PTGG-OH)
0.051 | H-DFGYVAE-OH

What follows are compounds tested against T1, 3-hydroxy-3-methylglutaryl-coenzyme A reductase (assay: Inhibition of HMG-CoA reductase by spectrophotometry). Conditions: not given.

IC50 | Compound
Not Active | NCC(=O)N[C@@H](Cc1ccc(F)cc1)C(=O)N1CCC[C@H]1C(=O)NCC(=O)NCC(=O)NCC(=O)O (H-G[Phe(4-F)]PGGG-OH)
Not Active | H-DFGYVAG-OH

Same assay, conditions: read-out: IC50

Compound | IC50 [µM]
NCC(=O)N[C@@H](Cc1ccc(F)cc1)C(=O)N1CCC[C@H]1C(=O)N[C@@H](CCC(=O)O)C(=O)NCC(=O)NCC(=O)O (H-G[Phe(4-F)]PEGG-OH) | 0.75
C[C@@H](O)[C@H](NC(=O)[C@@H]1CCCN1C(=O)[C@H](Cc1ccc(F)cc1)NC(=O)CN)C(=O)NCC(=O)NCC(=O)O (H-G[Phe(4-F)]PTGG-OH) | 4.82
CC[C@H](C)[C@H](N)C(=O)N[C@@H](C)C(=O)N[C@H](C(=O)N[C@@H](CCC(=O)O)C(=O)O)C(C)C (H-IAVE-OH) | 75.2
CC(C)C[C@H](N)C(=O)N1CCC[C@H]1C(=O)N[C@@H](Cc1ccc(O)cc1)C(=O)N1CCC[C@H]1C(=O)O (H-LPYP-OH) | 485
CC(C)[C@H](NC(=O)[C@H](C)NC(=O)[C@@H](N)Cc1ccc(O)cc1)C(=O)N[C@@H](CCC(=O)O)C(=O)O (H-YAVE-OH) | 44.8
CC(C)[C@H](NC(=O)[C@@H](N)Cc1ccc(O)cc1)C(=O)N[C@@H](C)C(=O)N[C@@H](CCC(=O)O)C(=O)O (H-YVAE-OH) | 41.2
H-FFYVAE-OH | 2.56
H-FPYVAE-OH | 1.47
H-GFPDGG-OH | 1.52
H-GFPEGG-OH | 1.78
H-GFPTGG-OH | 16.9
H-GLPEGG-OH | 27.3
H-IAVPTGVA-OH | 152

Continued, values first:

IC50 [µM] | Compound
8.52 | CC(C)[C@H](NC(=O)[C@H](Cc1ccc(F)cc1)NC(=O)CNC(=O)[C@@H](N)Cc1ccccc1)C(=O)N[C@@H](C)C(=O)N[C@@H](CCC(=O)O)C(=O)O (H-FG[Phe(4-F)]VAE-OH)
6.95 | NCC(=O)N[C@@H](Cc1ccc(F)cc1)C(=O)N1CCC[C@H]1C(=O)N[C@@H](CC(=O)O)C(=O)NCC(=O)NCC(=O)O (H-G[Phe(4-F)]PDGG-OH)
52.7 | CC[C@H](C)[C@H](N)C(=O)N[C@H](C(=O)N[C@@H](C)C(=O)N[C@@H](CCC(=O)O)C(=O)O)C(C)C (H-IVAE-OH)
3.84 | CC(C)[C@H](NC(=O)[C@@H](N)Cc1ccc(F)cc1)C(=O)N[C@@H](C)C(=O)N[C@@H](CCC(=O)O)C(=O)O (H-[Phe(4-F)]VAE-OH)
0.16 | H-DFGYVAE-OH
0.24 | H-EFGYVAE-OH
0.41 | H-FGYVAE-OH
0.27 | H-GFGYVAE-OH
22.3 | H-GLPDGG-OH
19.4 | H-GLPTGG-OH
201 | H-IAVPGEVA-OH
0.26 | H-TFGYVAE-OH
